Test results from PMC9658316, “Discovery of Mitochondrial Complex I Inhibitors as Anticancer and Radiosensitizer Drugs Based on Compensatory Stimulation of Lactate Release” (Cancers, 2022).

Columns and labels:
[1] = test system: intact CT26 cancer cells; assay: Seahorse basal OCR and ECAR in intact (non-permeabilized) CT26 cancer cells; assay type: cell-based, mouse; details: for restoration of OCR / OXPHOS activity in cells exposed to aa compound: intact CT26 cells exposed to aa
Method: (§1) L-lactate concentration was measured in a semi-automated manner using CMA Microdialysis AB enzymatic assay and a CMA 600 analyzer (Aurora Borealis, Schoonebeek, The Netherlands) as previously described. Briefly, cells (2 × 10^5 cells per well; 3 wells/condition) were seeded in 12-well plates with 2 mL of their routine culture medium. After 24 h, medium was replaced by 500 µL of DMEM containing 10 mmol/L D-glucose and supplemented with 2 mmol/L L-glutamine and 10% dialyzed FBS (Sigma-Aldrich), in the presence of the compounds or vehicle (DMSO). The initial concentration of L-lactate in the experimental medium was also assessed by including control wells containing only cell culture medium (no cells) on each plate. After incubation for 24 h, extracellular media were collected and deproteinized by centrifugation (15 min, 10,000 rpm, 4 °C) in 10 kDa cut-off filter tubes (VWR, Avantor, Leuven, Belgium). Differences in L-lactate concentrations between control and treated cells were calculated and normalized by the protein content in each well and expressed in µmol/h/mg protein. Oxygen-consumption rate (OCR) was measured using the Seahorse XF96 plate reader as previously reported. Briefly, cells (2 × 10^4 cells per well) were first permeabilized with 1 nM Seahorse XF Plasma Membrane Permeabilizer (#102504-100; Agilent, Machelen, Belgium) and respiration was stimulated by adding 10 mM pyruvate, 5 mM malate, and 2 mM ADP. After baseline OCR determination, compounds were added (to inhibit complex I) followed by 10 mM succinate to fuel complex II and rescue the electron transport chain. In some experiments, the effects of selected hits on basal OCR were evaluated in intact cells (including in the presence of MCT1/2 inhibitor AR-C155858 [29] or methylpyruvate). OCR data were normalized according to protein content in each well.
Since other lactate transporters could be involved, we also used methylpyruvate which can bypass the need for a mitochondrial carrier and mimic the result of lactate oxidation by a mitochondrial LDH or ensure the delivery of pyruvate into the mitochondria matrix. […] In the same experiments carried out on non-permeabilized cancer cells, the extent of basal OCR inhibition in response to 10 µM aa was similar to that observed with 100 nM IACS-010759 (−52 ± 5% and −45 ± 6%, respectively) and mirrored by an increase in extracellular acidification rate (ECAR) (+36 ± 11% and +29 ± 9%, respectively).

[2] = test system: colorectal CT26 cancer cells; assay: Compound-induced L-lactate release (Assay #1), CT26; assay type: cell-based, mouse; details: 10 µM; for [LAC] increase: 24 h exposure, L-lactate secretion above basal release
Method: as §1
Figure 3 Compound-induced L-lactate release (Assay #1). Culture medium was collected after 24 h exposure to the indicated compounds (10 µM) and the amount of extracellular L-lactate release was determined in a semi-automated manner; dose-dependent effects of complex I inhibitor IACS are shown on the right (shaded bars). Bar graph depicts the extent of L-lactate secretion above the basal release as determined in the absence of any compound (n = 3, ** p < 0.01 for increased L-lactate release vs. reference compound aa).

[3] = molecular target: mitochondrial complex I (Mus musculus, UniProt P03888+Q91WD5+Q9DC70); assay: Seahorse OCR in permeabilized CT26 cancer cells, mitochondrial complex I inhibition (Assay #2); assay type: cell-based; details: for IC50: pyruvate/malate, tested at 1 and 10 µM, read-out: OCR inhib. (IC50); for significant inhibition of complex I: up to 10 µM
Method: as §1
(A–D). Graphs depict changes in O2 consumption rate (OCR) measured with the Seahorse technology on permeabilized CT26 cancer cells upon successive addition of pyruvate/malate, the indicated inhibitor and succinate. […] (E,F).

[4] = test system: 3D tumor CT26 spheroids; assay: Inhibition of 3D tumor spheroid growth (Assay #3); assay type: cell-based, mouse; details: CT26 spheroids, day 10
Method: Spheroids were prepared by seeding 1500 cells/well in Ultra-Low Attachment 96-well plate (Corning, Merck, Hoeilaart, Belgium) in DMEM supplemented with 10% heat-inactivated FBS. Inhibitors were added on day 4 (mean diameter of spheroids: 300 µm) and renewed every 3 days. Spheroid growth was monitored using live-cell phase contrast microscope (Axio Observer, Zeiss, Zaventem, Belgium); spheroid area, density and morphology were measured using ImageJ software. Confocal fluorescence microscopy (LSM510, Zeiss, Zaventem, Belgium) was used for detecting pimonidazole immunostaining as previously reported. Spheroids from a same experiment were imaged with the same gain and exposure settings. In some experiments, OXPHOSi treatment was combined with irradiation using a ^137Cs γ-irradiator (IBL-637; CIS-BioInternational, Saclay, France) as previously described.
Figure 5 Inhibition of 3D tumor spheroid growth (Assay #3). […] Drug exposure without (A) or with irradiation (B) was associated with a significant reduction in spheroid sizes vs. untreated spheroids (not shown).

| Structure (SMILES) | [LAC] increase [2] | IC50 [3] | also measured |
| --- | --- | --- | --- |
| Cc1n[nH]c(C)c1Cc1sc2c(c1C(=O)N1C[C@H](O)CO1)c(=O)n(C)c(=O)n2CC(C)C [AR-C155858] |  |  | restoration of OCR / OXPHOS activity in cells exposed to aa compound [1]: failed to restore OCR |
| NC(=O)c1nnn(Cc2cc(Cl)c(CN3CCOCC3)c(Cl)c2)c1N [ai] | ~2 µmol/h/mg | > 10 µM | significant inhibition of complex I [3]: did not show significant inhibition of complex I |
| CC(C)(C)OC(=O)N1CCC(Nc2cccc(Cn3nnc(C(=O)O)c3N)c2)CC1 [bc] | ~0 µmol/h/mg | > 10 µM |  |
| Cc1cccc(C(=O)c2c(Cl)cc(Cn3nnc(C(N)=O)c3N)cc2Cl)c1 [ad] | ~2 µmol/h/mg | ~10 µM |  |
| O=C(c1ccc(Cl)cc1)c1c(Cl)cc(Cn2cc(CO)nn2)cc1Cl [av] | ~0 µmol/h/mg | > 10 µM |  |
| NC(=O)c1cn(Cc2cc(F)c(C(=O)c3ccc(Cl)cc3)c(F)c2)nn1 [aw] | ~0 µmol/h/mg | > 10 µM |  |
| NC(=O)c1nnn(Cc2cc(Cl)c(C(=O)c3ccccc3)c(Cl)c2)c1N [ab] | ~2 µmol/h/mg | ~10 µM |  |
| NC(=O)c1nnn(Cc2cc(Cl)c(C(=O)c3ccc4ccccc4c3)c(Cl)c2)c1N [ah] | ~2 µmol/h/mg | ~10 µM | pattern of OCR inhibition activity relative to aa ([3]; 1 and 10 µM): hypoactive |
| CC(=O)c1c(Cl)cc(Cn2nnc(C(N)=O)c2N)cc1Cl [ao] | ~2 µmol/h/mg | > 10 µM | significant inhibition of complex I [3]: did not show significant inhibition of complex I |
| NC(=O)c1nnn(Cc2cc(F)c(C(=O)c3ccc(Cl)cc3)c(F)c2)c1N [an] | ~4 µmol/h/mg | ~10 µM | L-lactate release compared with reference compound aa ([2]; 24 h): more potent inducers of L-lactate release; spheroid growth inhibition compared with reference compound aa [4]: inhibited spheroid growth to the same extent as compound aa |
| COC(=O)C(C)=O [Methylpyruvate, methylpyruvate] |  |  | restoration of OCR / OXPHOS activity in cells exposed to aa compound [1]: failed to restore OXPHOS activity |
| Cc1nc(-c2nc(-c3ccc(OC(F)(F)F)cc3)no2)nn1Cc1cccc(N2CCC(S(C)(=O)=O)CC2)c1 [IACS-010759, reference compound] |  |  | increase in extracellular acidification rate (ECAR) ([1]; non-permeabilized CT26 cells, 100 nM): +29 ± 9%; concentration giving the same extent of maximal OCR inhibition [3]: 100 nM |
| C=CCNC(=O)c1nnn(Cc2cc(Cl)c(C(=O)c3ccc(C(F)(F)F)cc3)c(Cl)c2)c1N [ak] | ~0 µmol/h/mg | > 10 µM |  |
| NC(=O)c1nnn(Cc2cc(Cl)c(C(=O)c3ccc(OC(F)(F)F)cc3)c(Cl)c2)c1N [af] | ~2 µmol/h/mg | ~10 µM |  |
| Cc1cc(C)cc(Cn2nnc(C(N)=O)c2N)c1 [ap] | ~0 µmol/h/mg | > 10 µM |  |
| NC(=O)c1nnn(Cc2cc(Cl)cc(Cl)c2)c1N [aq] | ~0 µmol/h/mg | > 10 µM |  |
| NC(=O)c1cn(Cc2cc(Cl)c(C(=O)c3ccc(Cl)cc3)c(Cl)c2)nn1 [as] | ~2 µmol/h/mg | > 10 µM | significant inhibition of complex I [3]: did not show significant inhibition of complex I |
| Cc1ccc(C(=O)c2c(Cl)cc(Cn3nnc(C(N)=O)c3N)cc2Cl)cc1 [ac] | ~2 µmol/h/mg | ~10 µM |  |
| NC(=O)c1nnn(Cc2cc(Cl)c(Cc3ccc(C(F)(F)F)cc3)c(Cl)c2)c1N [compound al] | ~0 µmol/h/mg | > 10 µM |  |
| Nc1c(C(=O)O)nnn1Cc1ccccc1N1CCSCC1 [bf] | ~0 µmol/h/mg | > 10 µM |  |
| Nc1c(C(=O)O)nnn1Cc1ccc(NC(=O)c2ccc(Cl)cc2)cc1 [ba] | ~0 µmol/h/mg | > 10 µM |  |
| Nc1c(C(=O)O)nnn1Cc1ccccc1NC(=O)c1ccc(OC(F)(F)F)cc1 [be] | ~0 µmol/h/mg | > 10 µM |  |
| COc1ccc(C(=O)c2c(Cl)cc(Cn3nnc(C(N)=O)c3N)cc2Cl)cc1 [ae] | ~2 µmol/h/mg | ~10 µM |  |
| Nc1c(C(=O)O)nnn1Cc1cccc(NC(=O)c2ccc(OC(F)(F)F)cc2)c1 [bb] | ~0 µmol/h/mg | > 10 µM |  |
| Nc1c(C(=O)O)nnn1Cc1cccc(N2CCOCC2)c1 [bd] | ~0 µmol/h/mg | > 10 µM |  |
| O=C(O)c1cn(Cc2cc(Cl)c(C(=O)c3ccc(Cl)cc3)c(Cl)c2)nn1 [ar] | ~0 µmol/h/mg | > 10 µM |  |
